Measurements: US20110301102A1, “COMPOSITIONS AND METHODS FOR TREATING MYELODYSPLASTIC SYNDROME” (Telik, Inc., priority 2010, published 2011)

What was measured:
[1] = tested on: patients with MDS (IPSS low and intermediate-1 risk); settings: one patient (Quddus et al.); cited from earlier work
[2] = tested on: patients with MDS (IPSS low and intermediate-1 risk); experiment: Clinical study of Telintra (ezatiostat hydrochloride) in patients with MDS, two dosing schedules; settings: for patients with significant RBC transfusion reduction: 5 of 11 patients
Method: Eighty-seven patients were randomized and treated at 23 investigational sites. After initial dose ranging in 14 patients, two dose levels were selected for further study. Subsequently, 37 patients were treated at 3 grams daily for two weeks followed by a one week rest period, and 36 patients were treated at 2 grams daily for three weeks followed by a one week rest period. The data on these 73 patients was pooled for this preliminary analysis.
The median age was 72 years, with a patient population distribution of International Prognostic Scoring System (IPSS) low risk (23 patients, 32%) and intermediate-1 risk (50 patients, 68%).

CCOC(=O)[C@@H](N)CCC(=O)N[C@@H](CSCc1ccccc1)C(=O)N[C@@H](C(=O)OCC)c1ccccc1 [Telintra®, ethyl (2S)-2-amino-5-[[(2R)-3-benzylsulfanyl-1-[[(1R)-2-ethoxy-2-oxo-1-phenylethyl]amino]-1-oxopropan-2-yl]amino]-5-oxopentanoate]
duration of complete remission following discontinuation of therapy [1]: more than 12 months | Duration of HI-E Response, Median (95% CI) ([2]; 1 g b.i.d. (2 grams per day) 3 weeks on & 1 week off): 46.1 (10.0-46.1) Weeks | Duration of HI-E Response, Median (95% CI) ([2]; 1.5 g b.i.d. (3 grams per day) 2 weeks on & 1 week off): 18.4 (3.1-51.0) Weeks | patients achieving RBC transfusion independence ([2]; 4 of 38 RBC transfusion-dependent patients, pooled): 11% | patients with clinically significant RBC transfusion reductions (reduction of 4 U/8 weeks, IWG 2006) ([2]; 11 of 38 RBC transfusion-dependent patients, pooled): 29% | effect of prior DMTI treatment on GI adverse events ([2]; all patients treated): increased incidence of GI AEs | incidence of diarrhea, Grade 1 ([2]; all patients treated): 25% | incidence of diarrhea, Grade 2 ([2]; all patients treated): 7% | incidence of diarrhea, Grade 3 ([2]; all patients treated): 3% | incidence of nausea, Grade 1 ([2]; all patients treated): 45% | incidence of nausea, Grade 2 ([2]; all patients treated): 16% | incidence of nausea, Grade 3 ([2]; all patients treated): 1% | incidence of vomiting, Grade 1 ([2]; all patients treated): 30% | incidence of vomiting, Grade 2 ([2]; all patients treated): 12% | incidence of vomiting, Grade 3 ([2]; all patients treated): 2% | number of cytogenetic complete responses ([2]; all patients, pooled): three | effect of prior Revlimid treatment on HI-E response ([2]; logistic regression analysis): enhance HI-E response | change in the odds for a HI-E response with prior DMTI treatment ([2]; logistic regression analysis, p=0.023): five-fold decrease | patients with significant RBC transfusion reduction ([2]; no prior Revlimid, no prior DMTI): 45% | number of patients with complete cytogenetic response ([2]; of the four patients with del 5q minus): two | patients achieving transfusion independence ([2]; prior Revlimid, no prior DMTI, 3 of 11 patients): 27% | patients with significant RBC transfusion reduction ([2]; prior Revlimid, no prior DMTI): 45%
